{"source": "patent US7579006B2", "about": "“Method of treating immune pathologies with low dose estrogen” (Oregon Health and Science University, priority 2000, dated 2009)", "key": {"female SJL mice": {"tested_on": "female SJL mice", "test": "EAE induced with PLP 139-151 in female SJL mice (clinical scores, spinal cord histopathology)", "assay_type": "in vivo", "settings": "for Demyelinated foci/section / Inflammatory foci/section: spinal cord at peak of disease"}, "B10.PL mice": {"tested_on": "B10.PL mice", "test": "EAE induced with MBP Ac1-11 in B10.PL mice", "assay_type": "in vivo"}, "male SJL mice": {"tested_on": "male SJL mice", "test": "EAE induced with PLP 139-151 in male SJL mice", "assay_type": "in vivo"}, "[1]": {"tested_on": "draining lymph node (DLN) cells", "test": "Flow cytometry of activation and adhesion markers on DLN cells of SJL mice with EAE", "assay_type": "in vivo", "settings": "DLN cells at peak of EAE", "protocol": "Immunofluorescent staining for flow cytometry. Draining lymph node (DLN) cells were removed during the peak of clinical symptoms and analyzed for the expression of cell surface proteins by fluorescent staining ex vivo. The following fluorochrome conjugated antibodies obtained from Pharmingen Inc. (San Diego, Calif.) were used for the direct staining of DLN cells: anti-CD4, anti-CD25, anti-CD69, anti-CD95L, anti-CD44, anti-CD62L, anti-CD49d. Two-color immunofluorescent analysis was performed on a FACScan instrument (Becton Dickinson, Mountain View, Calif.) using Cellquest software. For each experiment the cells were stained with isotype control antibodies to establish background staining, and to set the quadrants prior to calculating the percent positive staining cells. […] Alterations in the expression of adhesion or activation markers on T cells are often indicative of functional changes in the cell. Monoclonal antibodies specific for a number of these markers were used to assess whether estrogen therapy altered their expression. Draining lymph node (DLN) cells were recovered from mice during the peak of clinical EAE, incubated with the indicated fluorochrome conjugated monoclonal antibodies, and surface expression measured by fluorescent activated cell analyzer."}, "DLN cells": {"tested_on": "DLN cells", "test": "PLP 139-151 induced cytokine production by DLN cells (ELISA)", "assay_type": "in vivo, mice", "settings": "48-72 hours after PLP 139-151 stimulation", "protocol": "Cytokine detection by ELISA. DLN cells were cultured at 4×10^6/ml and stimulated with the appropriate antigen in 24 well culture plates. Cell culture supernatants were recovered between 48-72 hr and frozen at −70° C. until needed for the cytokine assay. Measurement of cytokines was performed by ELISA using cytokine specific capture and detection antibodies (Pharmingen). Standard curves for each assay were generated using recombinant mouse cytokines (Pharmingen), and the concentration of cytokines in the cell supernatants was determined by interpolation from the appropriate standard curve. IFN-γ, TNF-α and IL-12 were chosen as representative Th1 cytokines, while IL-4 and IL-10 were measured as representative Th2 cytokines.\nTo determine if low dose estrogen therapy altered cytokine secretion patterns, DLN cells were prepared from individual mice at the peak of clinical EAE and cytokine levels were measured 48-72 hours after in vitro stimulation with PLP 139-151. IFN-γ, IL-12, and TNF-α were used as representative Th1 cytokines while IL-4, and IL-10 were used as representative Th2 cytokines. […] Despite the lack of statistical significance, the trend towards higher Th1 and lower Th2 cytokines points towards a subtle shift in the Th1/Th2 balance. The shift can be seen more clearly when the cytokine response of each individual mouse is plotted as a ratio of IFN-γ to IL-10 (FIG. 5C). There was a marked decrease in the frequency of high Th1 responder mice in the E2 and E3 treated groups when compared to placebo animals that approached significance (p=0.09 for the 5.0 mg E3 treated mice). Additionally, no informative trends were detected in IL-4 secretion (FIG. 5D), and TNF-α secretion was very often below the limits of detection for the assay (<31.25 pg/ml). Modest changes in cytokine responses induced by low dose estrogen therapy were also observed in the B10.PL model and were consistent with the data described for the SJL model."}, "[2]": {"settings": "cited from earlier work"}}, "note": "Like-named read-outs stand apart in the source and are kept apart here.", "data": [{"smiles": "C[C@]12CC[C@@H]3c4ccc(O)cc4CC[C@H]3[C@@H]1C[C@@H](O)[C@@H]2O", "note": "[Estriol, estriol]", "values": [{"measurement": "CDI (cumulative disease index)", "setting": "female SJL mice; 1.5 mg/pellet (low)", "result": "9.3 ± 2.6"}, {"measurement": "Incidence", "setting": "female SJL mice; 1.5 mg/pellet (low)", "result": "6/10"}, {"measurement": "Incidence (%)", "setting": "female SJL mice; 1.5 mg/pellet (low)", "result": "(60%)"}, {"measurement": "Onset", "setting": "female SJL mice; 1.5 mg/pellet (low)", "result": "16.4 ± 0.7", "unit": "days"}, {"measurement": "Peak (disease score)", "setting": "female SJL mice; 1.5 mg/pellet (low)", "result": "2.0 ± 0.0"}, {"measurement": "Relapse", "setting": "female SJL mice; 1.5 mg/pellet (low)", "result": "0/3"}, {"measurement": "Relapse (%)", "setting": "female SJL mice; 1.5 mg/pellet (low)", "result": "(0%)"}, {"measurement": "Demyelinated foci/section", "setting": "female SJL mice; 2.5 mg pellet", "result": "0.8 ± 0.2", "unit": "foci/section"}, {"measurement": "Inflammatory foci/section", "setting": "female SJL mice; 2.5 mg pellet", "result": "1.2 ± 0.6", "unit": "foci/section"}, {"measurement": "Demyelinated foci/section", "setting": "female SJL mice; 5.0 mg pellet", "result": "0.3 ± 0.2", "unit": "foci/section"}, {"measurement": "Inflammatory foci/section", "setting": "female SJL mice; 5.0 mg pellet", "result": "0.9 ± 0.5", "unit": "foci/section"}, {"measurement": "CDI (cumulative disease index)", "setting": "female SJL mice; 5.0 mg/pellet (pregnancy)", "result": "6.5 ± 9"}, {"measurement": "Incidence", "setting": "female SJL mice; 5.0 mg/pellet (pregnancy)", "result": "2/5"}, {"measurement": "Incidence (%)", "setting": "female SJL mice; 5.0 mg/pellet (pregnancy)", "result": "(40%)"}, {"measurement": "Onset", "setting": "female SJL mice; 5.0 mg/pellet (pregnancy)", "result": "33.5 ± 5.0", "unit": "days"}, {"measurement": "Peak (disease score)", "setting": "female SJL mice; 5.0 mg/pellet (pregnancy)", "result": "1.4 ± 2.2"}, {"measurement": "Relapse", "setting": "female SJL mice; 5.0 mg/pellet (pregnancy)", "result": "0/2"}, {"measurement": "Relapse (%)", "setting": "female SJL mice; 5.0 mg/pellet (pregnancy)", "result": "(0%)"}, {"measurement": "CDI (cumulative disease index)", "setting": "female SJL mice; 15.0 mg/pellet (high)", "result": "4.4 ± 3.5"}, {"measurement": "Incidence", "setting": "female SJL mice; 15.0 mg/pellet (high)", "result": "5/10"}, {"measurement": "Incidence (%)", "setting": "female SJL mice; 15.0 mg/pellet (high)", "result": "(50%)"}, {"measurement": "Onset", "setting": "female SJL mice; 15.0 mg/pellet (high)", "result": "23.8 ± 9", "unit": "days"}, {"measurement": "Peak (disease score)", "setting": "female SJL mice; 15.0 mg/pellet (high)", "result": "1.4 ± 1.1"}, {"measurement": "Relapse", "setting": "female SJL mice; 15.0 mg/pellet (high)", "result": "0/1"}, {"measurement": "Relapse (%)", "setting": "female SJL mice; 15.0 mg/pellet (high)", "result": "(0%)"}, {"measurement": "comparison of E2 and E3 in incidence or severity of EAE", "setting": "female SJL mice; Fisher exact test, same animal model", "result": "equally protective"}, {"measurement": "CDI", "setting": "B10.PL mice; 1.5 mg/pellet (low)", "result": "1.9 ± 1.7"}, {"measurement": "Incidence", "setting": "B10.PL mice; 1.5 mg/pellet (low)", "result": "5/8"}, {"measurement": "Incidence (%)", "setting": "B10.PL mice; 1.5 mg/pellet (low)", "result": 38, "unit": "%"}, {"measurement": "Onset", "setting": "B10.PL mice; 1.5 mg/pellet (low)", "result": "30.3 ± 0.9", "unit": "days"}, {"measurement": "Peak (disease score)", "setting": "B10.PL mice; 1.5 mg/pellet (low)", "result": "1.38 ± 0.8"}, {"measurement": "CDI", "setting": "B10.PL mice; 5 mg/pellet (pregnancy)", "result": "1.0 ± 0.5"}, {"measurement": "Incidence", "setting": "B10.PL mice; 5 mg/pellet (pregnancy)", "result": "3/8"}, {"measurement": "Incidence (%)", "setting": "B10.PL mice; 5 mg/pellet (pregnancy)", "result": 38, "unit": "%"}, {"measurement": "Onset", "setting": "B10.PL mice; 5 mg/pellet (pregnancy)", "result": "31.3 ± 0.7", "unit": "days"}, {"measurement": "Peak (disease score)", "setting": "B10.PL mice; 5 mg/pellet (pregnancy)", "result": "0.71 ± 0.4"}, {"measurement": "inhibitory effect on EAE compared with 17β-estradiol", "setting": "B10.PL mice; B10.PL females", "result": "equivalent inhibitory effect on EAE"}, {"measurement": "CDI", "setting": "male SJL mice; 2.5 mg/pellet", "result": "3.2 ± 2.5"}, {"measurement": "Incidence", "setting": "male SJL mice; 2.5 mg/pellet", "result": "2/3"}, {"measurement": "Incidence (%)", "setting": "male SJL mice; 2.5 mg/pellet", "result": 67, "unit": "%"}, {"measurement": "Onset", "setting": "male SJL mice; 2.5 mg/pellet", "result": "16.5 ± 0.7", "unit": "days"}, {"measurement": "Peak (disease score)", "setting": "male SJL mice; 2.5 mg/pellet", "result": "0.67 ± 0.6"}, {"measurement": "CDI", "setting": "male SJL mice; 5.0 mg/pellet", "result": "2.6 ± 5.3"}, {"measurement": "Incidence", "setting": "male SJL mice; 5.0 mg/pellet", "result": "1/4"}, {"measurement": "Incidence (%)", "setting": "male SJL mice; 5.0 mg/pellet", "result": 25, "unit": "%"}, {"measurement": "Onset", "setting": "male SJL mice; 5.0 mg/pellet", "result": "16.0 ± 0", "unit": "days"}, {"measurement": "Peak (disease score)", "setting": "male SJL mice; 5.0 mg/pellet", "result": "0.50 ± 1.0"}, {"measurement": "CD4, % of Total", "setting": "[1]; 2.5 mg pellet", "result": 45, "unit": "%"}, {"measurement": "CD25, % of CD4+ T cells", "setting": "[1]; 2.5 mg pellet", "result": 5.5, "unit": "%"}, {"measurement": "CD44, % of CD4+ T cells", "setting": "[1]; 2.5 mg pellet", "result": 36, "unit": "%"}, {"measurement": "CD62L, % of CD4+ T cells", "setting": "[1]; 2.5 mg pellet", "result": 12, "unit": "%"}, {"measurement": "CD69, % of CD4+ T cells", "setting": "[1]; 2.5 mg pellet", "result": 7.5, "unit": "%"}, {"measurement": "CD49d, % of CD4+ T cells", "setting": "[1]; 2.5 mg pellet", "result": 36, "unit": "%"}, {"measurement": "FASL, % of CD4+ T cells", "setting": "[1]; 2.5 mg pellet", "result": 3.1, "unit": "%"}, {"measurement": "CD4, % of Total", "setting": "[1]; 5.0 mg pellet", "result": 47, "unit": "%"}, {"measurement": "CD25, % of CD4+ T cells", "setting": "[1]; 5.0 mg pellet", "result": 6.4, "unit": "%"}, {"measurement": "CD44, % of CD4+ T cells", "setting": "[1]; 5.0 mg pellet", "result": 38, "unit": "%"}, {"measurement": "CD62L, % of CD4+ T cells", "setting": "[1]; 5.0 mg pellet", "result": 8.8, "unit": "%"}, {"measurement": "CD69, % of CD4+ T cells", "setting": "[1]; 5.0 mg pellet", "result": 8.3, "unit": "%"}, {"measurement": "CD49d, % of CD4+ T cells", "setting": "[1]; 5.0 mg pellet", "result": 37, "unit": "%"}, {"measurement": "FASL, % of CD4+ T cells", "setting": "[1]; 5.0 mg pellet", "result": 2.7, "unit": "%"}, {"measurement": "IL-10 secretion by DLN cells", "setting": "DLN cells", "result": "modest increase"}, {"measurement": "IL-12 secretion by DLN cells", "setting": "DLN cells", "result": "small decrease"}, {"measurement": "secretion of IFN-γ by DLN cells", "setting": "DLN cells; p>0.10", "result": "consistently lower"}, {"measurement": "serum concentration from 60-day release pellet", "setting": "[2]; 0.025 mg pellet", "result": "10 to 20", "unit": "pg/mL"}, {"measurement": "serum concentration from 60-day release pellet", "setting": "[2]; 0.1 mg pellet", "result": "40 to 50", "unit": "pg/mL"}, {"measurement": "serum concentration from 60-day release pellet", "setting": "[2]; 0.36 mg pellet", "result": "150 to 200", "unit": "pg/mL"}, {"measurement": "serum concentration from 60-day release pellet", "setting": "[2]; 1.5 mg pellet", "result": "800-1,000 pg/ml"}, {"measurement": "serum concentration from 60-day release pellet", "setting": "[2]; 2.5 mg pellet", "result": "2,000-3,000 pg/ml"}, {"measurement": "serum concentration from 60-day release pellet", "setting": "[2]; 5 mg pellet", "result": "5,000-6,000 pg/ml"}, {"measurement": "serum concentration from 60-day release pellet", "setting": "[2]; 15 mg pellet", "result": "10,000-15,000 pg/ml"}]}]}
